Bounds are passed on as bounds.

The target in the first assay is T1, JNK1 (Homo sapiens, UniProt P45983).
T1 construct: purchased Carna Biosciences
T1 sequence (P45983 whole entry): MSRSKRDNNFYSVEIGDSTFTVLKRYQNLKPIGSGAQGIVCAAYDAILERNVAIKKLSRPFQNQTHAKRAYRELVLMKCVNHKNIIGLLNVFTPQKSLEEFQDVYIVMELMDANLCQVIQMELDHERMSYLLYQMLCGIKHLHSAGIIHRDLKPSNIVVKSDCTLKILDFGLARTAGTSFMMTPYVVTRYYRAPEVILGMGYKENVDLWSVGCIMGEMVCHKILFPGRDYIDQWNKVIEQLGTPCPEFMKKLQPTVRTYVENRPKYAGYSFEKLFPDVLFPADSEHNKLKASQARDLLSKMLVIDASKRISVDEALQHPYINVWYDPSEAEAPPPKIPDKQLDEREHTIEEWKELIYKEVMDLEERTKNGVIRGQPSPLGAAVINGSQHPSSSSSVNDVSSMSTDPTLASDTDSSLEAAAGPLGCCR
The assay is described as follows: JNK1 biochemical assays (one or more of: time resolved fluorescence, Z'-LYTE Cascade, radioactive). The conditions noted are these: Table 2; JNK1 IC50 activity level; read-out: Act. Level.
For the molecule `COc1ccc(-c2ccccc2)cc1Nc1ncc(C(N)=O)c(Nc2ccccc2)n1` [Example B-29, 2-(4-methoxybiphenyl-3-ylamino)-4-(phenylamino)pyrimidine-5-carboxamide], the IC50 was in the range of 1000 to 10000 nM.
On the same count and under the same terms, under `NC(=O)c1cnc(NCC2CCCCC2)nc1Nc1ccccc1` [Example B-49, 2-(cyclohexylmethylamino)-4-(phenylamino)pyrimidine-5-carboxamide] stands 200 to 800 nM; under `CC(=O)NCCNc1ncc(C(N)=O)c(Nc2ccccc2)n1` [Example B-41, 2-(2-acetamidoethylamino)-4-(phenylamino)pyrimidine-5-carboxamide], 1000 to 10000 nM.
`NC(=O)c1cnc(NC2CC2)nc1Nc1ccccc1` [Example B-36, 2-(cyclopropylamino)-4-(phenylamino)pyrimidine-5-carboxamide]: the IC50 was below 200 nM.
On the same count and under the same terms, in the case of `CNC(=O)[C@H]1CC[C@H](Nc2ncc(C(N)=O)c(Nc3ccccc3)n2)CC1` [Example B-8, 2-((1r,4r)-4-(methylcarbamoyl)cyclohexylamino)-4-(phenylamino)pyrimidine-5-carboxamide] it was below 200 nM; in that of `NC(=O)c1cnc(NC2CCc3ccccc32)nc1Nc1ccccc1` (stereo not drawn) [Example B-31, 2-(2,3-dihydro-1H-inden-1-ylamino)-4-(phenylamino)pyrimidine-5-carboxamide], 200 to 800 nM; in that of `CCC(Nc1ncc(C(N)=O)c(Nc2ccccc2)n1)c1ccccc1` (stereo not drawn) [Example B-56, 4-(phenylamino)-2-(1-phenylpropylamino)pyrimidine-5-carboxamide], 200 to 800 nM.

Still in this assay, the particulars now being: Table 3; JNK1 IC50 activity level; read-out: Act. Level.
`C[C@@H]1CC[C@@H](Nc2nc(N[C@H]3CC[C@H](C(=O)N(C)C)CC3)ncc2C#N)C[C@H]1O` [Example C-47, (1R,4r)-4-(5-cyano-4-((1R,3R,4R)-3-hydroxy-4-methylcyclohexylamino)pyrimidin-2-ylamino)-N,N-dimethylcyclohexanecarboxamid]: the IC50 is below 200 nM.
Still for that read-out and setting: in the case of `N#Cc1cnc(NC2CCC(F)(F)CC2)nc1N[C@@H]1CCC[C@H](O)C1` [Example C-3, 2-(4,4-difluorocyclohexylamino)-4-((1R,3S)-3-hydroxycyclohexylamino) pyrimidine-5-carbonitrile] it was 200 to 800 nM; in that of `CCO[C@H]1CC[C@H](Nc2ncc(C#N)c(N[C@H]3CCCOC3)n2)CC1` [Example C-24, 2-((1r,4S)-4-ethoxycyclohexylamino)-4-((S)-tetrahydro-2H-pyran-3-ylamino)pyrimidine-5-carbonitrile], 1000 to 10000 nM.

Staying with this assay, now noted: one or more of the JNK1 biochemical assays; read-out: Act. Level (JNK1 IC50 activity level).
In the case of `C[C@@H](Nc1nc(NC2CCOCC2)ncc1C(N)=O)C1CC1` [Example 424, (R)-4-(1-cyclopropylethylamino)-2-(tetrahydro-2H-pyran-4-ylamino)pyrimidine-5-carboxamide], the IC50 was below 200 nM.
Same read-out and setting: in the case of `C[C@H]1C[C@@H](Nc2nc(N[C@H]3CC[C@H](O)CC3)ncc2C(N)=O)C1` [Example 327, 2-((1r,4r)-4-hydroxycyclohexylamino)-4-((1s,3s)-3-methylcyclobutylamino)pyrimidine-5-carboxamide] it was below 200 nM.
For the molecule `CC(C)(C)Nc1ncc(C(N)=O)c(N[C@@H]2CCC[C@@H]2CO)n1` [Example 365, 2-(tert-butylamino)-4-((1R,2S)-2-(hydroxymethyl)cyclopentylamino)pyrimidine-5-carboxamide], the IC50 is below 200 nM.
Same read-out and setting: in the case of `CC(C)(Nc1nc(N[C@H]2CC[C@H](OC(F)F)CC2)ncc1C(N)=O)C1CC1` [Example 481, 4-(2-cyclopropylpropan-2-ylamino)-2-((1r,4r)-4-(difluoromethoxy)cyclohexylamino)pyrimidine-5-carboxamide] it was below 200 nM; in that of `CCO[C@H]1CC[C@H](Nc2ncc(C(N)=O)c(N[C@@H]3CCC[C@@H]3CO)n2)CC1` [Example 209, 2-((1r,4R)-4-ethoxycyclohexylamino)-4-((1R,2S)-2-(hydroxymethyl)cyclopentylamino)pyrimidine-5-carboxamide], below 200 nM; in that of `NC(=O)c1cnc(N[C@H]2CC[C@H](OC3CC3)CC2)nc1N[C@@H]1CCC[C@H](O)C1` [Example 205, 2-((1r,4R)-4-cyclopropoxycyclohexylamino)-4-((1R,3S)-3-hydroxycyclohexylamino)pyrimidine-5-carboxamide], below 200 nM.
Same read-out and setting: under `CCC(C)(C)Nc1nc(N[C@H]2CC[C@H](O)CC2)ncc1C(N)=O` [Example 225, 2-((1r,4r)-4-hydroxycyclohexylamino)-4-(tert-pentylamino)pyrimidine-5-carboxamide] stands below 200 nM.

The assay is the same for the next values; noted with them: tested in one or more of the JNK1 biochemical assays; read-out: Act. Level (JNK1 biochemical assay IC50 activity level).
On to `CCO[C@H]1CC[C@H](Nc2ncc(C(N)=O)c(NC[C@H](C)O)n2)CC1` [Example A-102, 2-((1r,4S)-4-ethoxycyclohexylamino)-4-((S)-2-hydroxypropylamino)pyrimidine-5-carboxamide], for which the IC50 is below 200 nM.
Still for that read-out and setting: under `CC(C)Nc1nc(N[C@H]2CC[C@H](C(C)(C)O)CC2)ncc1C(N)=O` [Example A-6, 2-((1r,4r)-4-(2-hydroxypropan-2-yl)cyclohexylamino)-4-(isopropylamino)pyrimidine-5-carboxamide] stands below 200 nM; under `CC(C)Nc1nc(N[C@H]2CC[C@H](OC(F)F)CC2)ncc1C(N)=O` [Example A-191, 2-((1r,4r)-4-(difluoromethoxy)cyclohexylamino)-4-(isopropylamino)pyrimidine-5-carboxamide], below 200 nM; under `CC(=O)N[C@H]1CC[C@H](Nc2ncc(C(N)=O)c(N[C@@H]3CCC[C@H](O)C3)n2)CC1` [Example A-39, 2-((1r,4R)-4-acetamidocyclohexylamino)-4-((1R,3S)-3-hydroxycyclohexylamino)pyrimidine-5-carboxamide], below 200 nM.
For the molecule `CO[C@H]1CC[C@H](Nc2ncc(C(N)=O)c(N[C@H]3CC[C@@H](O)C3)n2)CC1` [Example A-80, 4-((1S,3R)-3-hydroxycyclopentylamino)-2-((1r,4S)-4-methoxycyclohexylamino)pyrimidine-5-carboxamide], the IC50 is below 200 nM.
On to `COC[C@H]1CC[C@@H](Nc2nc(NC3CCN(C(C)=O)CC3)ncc2C(N)=O)CC1` [Example A-83, 2-(1-acetylpiperidin-4-ylamino)-4-((1s,4s)-4-(methoxymethyl)cyclohexylamino)pyrimidine-5-carboxamide], for which the IC50 lay in the range of 200 to 800 nM.
On the same count and under the same terms, under `CCO[C@H]1CCC[C@@H]1Nc1nc(N[C@H]2CC[C@H](OCC)CC2)ncc1C(N)=O` [Example A-73, 2-((1r,4S)-4-ethoxycyclohexylamino)-4-((1S,2S)-2-ethoxycyclopentylamino)pyrimidine-5-carboxamide] stands below 200 nM.
On the same count and under the same terms, under `CC(C)Nc1ncc(C(N)=O)c(N[C@H]2CC[C@@H](CO)CC2)n1` [Example A-139, 4-((1s,4s)-4-(hydroxymethyl)cyclohexylamino)-2-(isopropylamino)pyrimidine-5-carboxamide] stands 200 to 800 nM; under `C[C@]1(O)CC[C@H](Nc2ncc(C(N)=O)c(N[C@@H]3CCC[C@H](O)C3)n2)CC1` [Example A-22, 2-((1r,4R)-4-hydroxy-4-methylcyclohexylamino)-4-((1R,3S)-3-hydroxycyclohexylamino)pyrimidine-5-carboxamide], below 200 nM; under `COC[C@H]1CC[C@H](Nc2ncc(C(N)=O)c(N[C@H]3CCC(O)C3)n2)CC1` (stereo partly drawn) [Example A-94, 4-((1S,3R)-3-hydroxycyclopentylamino)-2-((1r,4S)-4-(methoxymethyl)cyclohexylamino)pyrimidine-5-carboxamide], below 200 nM.

(Values after patent US12129237B2, “Substituted diaminocarboxamide and diaminocarbonitrile pyrimidines, compositions thereof, and methods of treatment therewith” (SIGNAL PHARMACEUTICALS, LLC, priority 2011, dated 2024).)
